Data published in the supplement of paper PMC10307832.

Experiments:
Experiment in all cases: relative viability (nuclei count vs DMSO), 5 days (fraction); higher = more cells survive
[1] = system: NCI-H1975
How it was run: (§1)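 Lung cancer cell lines in 1536-well plates were dosed by pin tool the day after seeding, either with one drug alone or with a fixed anchor-drug dose plus five library-drug doses (not always all listed) in √10 steps. After 5 days, cells were fixed and their nuclei stained in one step (final 0.05% Triton X-100, 1% formaldehyde, 1 ug/ml Hoechst), then counted on 4× images. Relative viability is the nuclei count in treated wells divided by that in vehicle wells. Values are medians of duplicate plates.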

[2] = system: ChaGo-K-1
How it was run: as §1

[3] = system: NCI-H2347
How it was run: as §1

[4] = system: NCI-H1734
How it was run: as §1

[5] = system: NCI-H1355
How it was run: as §1

[6] = system: NCI-H1944
How it was run: as §1

[7] = system: LC-2-ad
How it was run: as §1

[8] = system: NCI-H2087
How it was run: as §1

[9] = system: SW 1573
How it was run: as §1

[10] = system: SK-LU-1
How it was run: as §1

[11] = system: PC-3 [JPC-3]
How it was run: as §1

[12] = system: NCI-H838
How it was run: as §1

[13] = system: EMC-BAC-2
How it was run: as §1

[14] = system: NCI-H2126
How it was run: as §1

[15] = system: HCC-44
How it was run: as §1

[16] = system: HCC-78
How it was run: as §1

[17] = system: HCC-366
How it was run: as §1

[18] = system: UMC-11
How it was run: as §1

[19] = system: NCI-H2009
How it was run: as §1

[20] = system: NCI-H441
How it was run: as §1

[21] = system: NCI-H522
How it was run: as §1

[22] = system: HOP-62
How it was run: as §1

## C=C1C(=O)O[C@@H](CCCCCCCC)[C@@H]1C(=O)O [C-75] + Nc1nc2[nH]cc(CCc3ccc(C(=O)N[C@@H](CCC(=O)O)C(=O)O)cc3)c2c(=O)[nH]1 [Pemetrexed] (partner 0.2 µM)
[1]; first compound 0.08 µM
  relative viability: 0.281
[1]; first compound 0.253 µM
  relative viability: 0.287
[1]; first compound 0.8 µM
  relative viability: 0.262
[1]; first compound 2.53 µM
  relative viability: 0.264
[1]; first compound 8 µM
  relative viability: 0.292
[2]; first compound 0.08 µM
  relative viability: 0.265
[2]; first compound 0.253 µM
  relative viability: 0.259
[2]; first compound 0.8 µM
  relative viability: 0.239
[2]; first compound 2.53 µM
  relative viability: 0.243
[2]; first compound 8 µM
  relative viability: 0.254
[3]; first compound 0.08 µM
  relative viability: 0.402
[3]; first compound 0.253 µM
  relative viability: 0.388
[3]; first compound 0.8 µM
  relative viability: 0.442
[3]; first compound 2.53 µM
  relative viability: 0.447
[3]; first compound 8 µM
  relative viability: 0.48
[4]; first compound 0.08 µM
  relative viability: 0.382
[4]; first compound 0.253 µM
  relative viability: 0.396
[4]; first compound 0.8 µM
  relative viability: 0.41
[4]; first compound 2.53 µM
  relative viability: 0.359
[4]; first compound 8 µM
  relative viability: 0.361
[5]; first compound 0.08 µM
  relative viability: 1.01
[5]; first compound 0.253 µM
  relative viability: 1.04
[5]; first compound 0.8 µM
  relative viability: 1.05
[5]; first compound 2.53 µM
  relative viability: 1.02
[5]; first compound 8 µM
  relative viability: 0.974
[6]; first compound 0.08 µM
  relative viability: 0.645
[6]; first compound 0.253 µM
  relative viability: 0.784
[6]; first compound 0.8 µM
  relative viability: 0.509
[6]; first compound 2.53 µM
  relative viability: 0.564
[6]; first compound 8 µM
  relative viability: 0.57
[7]; first compound 0.08 µM
  relative viability: 0.283
[7]; first compound 0.253 µM
  relative viability: 0.265
[7]; first compound 0.8 µM
  relative viability: 0.285
[7]; first compound 2.53 µM
  relative viability: 0.279
[7]; first compound 8 µM
  relative viability: 0.271
[8]; first compound 0.08 µM
  relative viability: 0.695
[8]; first compound 0.253 µM
  relative viability: 0.686
[8]; first compound 0.8 µM
  relative viability: 0.616
[8]; first compound 2.53 µM
  relative viability: 0.647
[8]; first compound 8 µM
  relative viability: 0.574
[9]; first compound 0.08 µM
  relative viability: 0.947
[9]; first compound 0.253 µM
  relative viability: 0.874
[9]; first compound 0.8 µM
  relative viability: 0.728
[9]; first compound 2.53 µM
  relative viability: 0.684
[9]; first compound 8 µM
  relative viability: 0.706
[10]; first compound 0.08 µM
  relative viability: 0.984
[10]; first compound 0.253 µM
  relative viability: 0.87
[10]; first compound 0.8 µM
  relative viability: 0.845
[10]; first compound 2.53 µM
  relative viability: 0.866
[10]; first compound 8 µM
  relative viability: 0.746
[11]; first compound 0.08 µM
  relative viability: 1.07
[11]; first compound 0.253 µM
  relative viability: 0.979
[11]; first compound 0.8 µM
  relative viability: 0.81
[11]; first compound 2.53 µM
  relative viability: 0.874
[11]; first compound 8 µM
  relative viability: 1.14
[12]; first compound 0.08 µM
  relative viability: 0.224
[12]; first compound 0.253 µM
  relative viability: 0.265
[12]; first compound 0.8 µM
  relative viability: 0.262
[12]; first compound 2.53 µM
  relative viability: 0.18
[12]; first compound 8 µM
  relative viability: 0.239
[13]; first compound 0.08 µM
  relative viability: 0.438
[13]; first compound 0.253 µM
  relative viability: 0.432
[13]; first compound 0.8 µM
  relative viability: 0.469
[13]; first compound 2.53 µM
  relative viability: 0.328
[13]; first compound 8 µM
  relative viability: 0.426
[14]; first compound 0.08 µM
  relative viability: 0.727
[14]; first compound 0.253 µM
  relative viability: 0.681
[14]; first compound 0.8 µM
  relative viability: 0.725
[14]; first compound 2.53 µM
  relative viability: 0.622
[14]; first compound 8 µM
  relative viability: 0.673
[15]; first compound 0.08 µM
  relative viability: 0.58
[15]; first compound 0.253 µM
  relative viability: 0.698
[15]; first compound 0.8 µM
  relative viability: 0.683
[15]; first compound 2.53 µM
  relative viability: 0.572
[15]; first compound 8 µM
  relative viability: 0.634
[16]; first compound 0.08 µM
  relative viability: 0.829
[16]; first compound 0.253 µM
  relative viability: 0.902
[16]; first compound 0.8 µM
  relative viability: 0.839
[16]; first compound 8 µM
  relative viability: 0.893
[17]; first compound 0.08 µM
  relative viability: 0.156
[17]; first compound 0.253 µM
  relative viability: 0.183
[17]; first compound 0.8 µM
  relative viability: 0.149
[17]; first compound 2.53 µM
  relative viability: 0.22
[17]; first compound 8 µM
  relative viability: 0.188
[18]; first compound 0.08 µM
  relative viability: 0.77
[18]; first compound 0.253 µM
  relative viability: 0.883
[18]; first compound 0.8 µM
  relative viability: 0.725
[18]; first compound 2.53 µM
  relative viability: 0.625
[18]; first compound 8 µM
  relative viability: 0.576
[19]; first compound 0.08 µM
  relative viability: 1.12
[19]; first compound 0.253 µM
  relative viability: 0.924
[19]; first compound 0.8 µM
  relative viability: 0.947
[19]; first compound 2.53 µM
  relative viability: 0.886
[19]; first compound 8 µM
  relative viability: 0.975
[20]; first compound 0.08 µM
  relative viability: 0.295
[20]; first compound 0.253 µM
  relative viability: 0.278
[20]; first compound 0.8 µM
  relative viability: 0.283
[20]; first compound 8 µM
  relative viability: 0.263
[21]; first compound 0.08 µM
  relative viability: 1.02
[21]; first compound 0.253 µM
  relative viability: 0.76
[21]; first compound 0.8 µM
  relative viability: 0.828
[21]; first compound 2.53 µM
  relative viability: 0.869
[21]; first compound 8 µM
  relative viability: 0.879
[22]; first compound 0.08 µM
  relative viability: 0.365
[22]; first compound 0.253 µM
  relative viability: 0.306
[22]; first compound 0.8 µM
  relative viability: 0.291
[22]; first compound 2.53 µM
  relative viability: 0.268
[22]; first compound 8 µM
  relative viability: 0.311
